Reference: patent publication US20110045101A1, “FUNGICIDAL SUBSTITUTED AZOLES” (E.I. Du Pont De Nemours and Company, priority 2009, published 2011)
Marks after values point to notes of the source that are not given here.

Columns and labels:
Format in all cases: in vivo
Details in all cases: 100 = 100% disease control
Alternaria solani = assay: Test D: tomato early blight, sprayed the day before inoculation, visual disease rating
Method in brief: (§1)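 Test rate was 200 ppm, sprayed to run-off and equal to 500 g/ha, or 40 ppm where marked. The compound was first taken up in acetone at 3% of final volume and suspended in acetone/purified water (50/50) containing 250 ppm Trem® 014.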

[1] = system: Puccinia recondita f. sp. tritici; assay: Test I: wheat leaf rust on wheat seedlings, sprayed the day before inoculation, visual disease rating
Method in brief: as §1

[2] = system: Erysiphe graminis f. sp. tritici; assay: Test J: wheat powdery mildew on wheat seedlings, sprayed the day before inoculation, visual disease rating
Method in brief: as §1

Septoria nodorum = assay: Test F: wheat glume blotch on wheat seedlings, sprayed the day before inoculation, visual disease rating
Method in brief: as §1

Septoria tritici = assay: Test G: wheat leaf blotch on wheat seedlings, sprayed the day before inoculation, visual disease rating
Method in brief: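 Disease was rated visually after Septoria tritici inoculation, 48 h saturated incubation at 24°C and 19 days in a 20°C growth chamber. Inoculation followed one day after run-off spraying of seedlings with compound at 200 ppm (≈500 g/ha) or, where marked, 40 ppm, formulated in acetone/water with surfactant.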

Botrytis cinerea = assay: Test C: tomato Botrytis on tomato seedlings, sprayed the day before inoculation, visual disease rating
Method in brief: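 Each compound is first taken up in acetone at 3% of the final volume and then brought to the desired ppm in a 50:50 acetone–water mix with 250 ppm surfactant (polyhydric alcohol esters). Tomato seedlings receive the suspension to run-off, normally at 200 ppm, occasionally 40 ppm.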

[3] = system: Puccinia recondita f. sp. tritici; assay: Test H: wheat leaf rust, test suspension sprayed after inoculation of wheat seedlings, visual disease rating
From the text: General protocol for preparing test suspensions for Tests A-J: The test compounds were first dissolved in acetone in an amount equal to 3% of the final volume and then suspended at the desired concentration (in ppm) in acetone and purified water (50/50 mix) containing 250 ppm of the surfactant Trem® 014 (polyhydric alcohol esters). The resulting test suspensions were then used in tests A-J. Spraying a 200 ppm test suspension to the point of run-off on the test plants was the equivalent of a rate of 500 g/ha. […] Wheat seedlings were inoculated with a spore suspension of Puccinia recondita f. sp. tritici (the causal agent of wheat leaf rust) and incubated in a saturated atmosphere at 20° C. for 24 h, and then moved to a growth chamber at 20° C. for 2 days. […] A dash (-) indicates no test results. All results are for 200 ppm except where followed by “*”, which indicates 40 ppm.

[4] = 200 ppm, 0 = no control relative to controls

SMILES | Test D disease control rating (Alternaria solani; [4]) [%] | Test I disease control rating [1, 4] [%] | Test J disease control rating [2, 4] [%] | Test F disease control rating (Septoria nodorum; [4]) [%] | Test G disease control rating (Septoria tritici; [4]) [%] | Test C disease control rating (Botrytis cinerea; [4]) [%] | Test H disease control rating [3, 4] [%] | Test D disease control rating (Alternaria solani; 200 ppm, 0 = no control) [%] | Test I disease control rating ([1]; 200 ppm, 0 = no control) [%] | Test J disease control rating ([2]; 200 ppm, 0 = no control) [%] | Test F disease control rating (Septoria nodorum; 200 ppm, 0 = no control) [%] | Test G disease control rating (Septoria tritici; 200 ppm, 0 = no control) [%] | Test C disease control rating (Botrytis cinerea; 200 ppm, 0 = no control) [%] | Test H disease control rating ([3]; 200 ppm, 0 = no control) [%] | further results
COc1ccc(-n2c(Br)nc(C)c2-c2c(F)cccc2F)cn1 [compound 719] | 100 | 100 | 100 | 98 | 99 | 99 | 99 |  |  |  |  |  |  |  | 
COc1ncccc1-n1c(Cl)nc(Cl)c1-c1c(F)cccc1F [compound 616] | 0 | 98 | 99 | 0 | 99 | 100 | 0 |  |  |  |  |  |  |  | 
COc1cc(F)c(-c2c(N(C)C)ncn2Cc2ccc(Cl)cc2)c(F)c1 [compound 265] |  |  |  |  |  |  |  | 0 | 61 | 0 | 60 | 86 | 97 | 32 | 
COc1ccc(F)c(-c2c(N(C)C)ncn2Cc2ccc(Cl)cc2)c1F [compound 271] |  |  |  |  |  |  |  | 9 | 83 | 0 | 0 | 82 | 99 | 0 | 
COc1ccc(F)c(-c2c(Cl)nc(Cl)n2Cc2ccc(Cl)cc2)c1F [compound 288] |  |  |  |  |  |  |  | 91 | 96 | 99 | 73 | 94 | 100 | 32 | 
COc1cc(F)c(-c2c(Cl)nc(CF)n2-c2ccc(F)cc2)c(F)c1 [Compound 331, 4-chloro-5-(2,6-difluoro-4-methoxyphenyl)-2-(fluoromethyl)-1-(4-fluorophenyl)-1H-imidazole] |  |  |  |  |  |  |  |  |  |  |  |  |  |  | pest or weed control at 200 ppm (Alternaria solani; Alternaria solani, 168 h, 200 ppm, 0 = no control relative to controls): 100%; pest or weed control at 200 ppm ([1]; Puccinia recondita, 168 h, 200 ppm, 0 = no control relative to controls): 100%; pest or weed control at 200 ppm ([2]; Blumeria graminis, 168 h, 200 ppm, 0 = no control relative to controls): 100%; pest or weed control at 200 ppm (Septoria nodorum; Parastagonospora nodorum, 264 h, 200 ppm, 0 = no control relative to controls): 99%; pest or weed control at 200 ppm (Septoria tritici; Zymoseptoria tritici, 504 h, 200 ppm, 0 = no control relative to controls): 95%; pest or weed control at 200 ppm (Botrytis cinerea; Botrytis cinerea, 120 h, 200 ppm, 0 = no control relative to controls): 100%; pest or weed control at 200 ppm ([3]; Puccinia recondita, 96 h, 200 ppm, 0 = no control relative to controls): 85%
Fc1cccc(-n2cnc(Cl)c2-c2c(F)ccc(F)c2F)c1 [compound 364] | 100 | 98 | 83 | 0 | 58 | 100 | 0 |  |  |  |  |  |  |  | 
Cc1ncc(Cc2c(F)cc(F)cc2F)n1-c1cc(Cl)cc(Cl)c1 [compound 539] | 0 | 93 | 95 | 0 | 7 | 36 | 0 |  |  |  |  |  |  |  | 
Cc1nc(C)n(-c2ccc(F)cc2Cl)c1-c1ccc(Cl)c(F)c1 [compound 543] |  |  |  |  |  |  |  |  |  |  |  |  |  |  | Test D disease control rating (Alternaria solani; 40 ppm (marked *)): 60* %; Test I disease control rating ([1]; 40 ppm (marked *)): 95* %; Test J disease control rating ([2]; 40 ppm (marked *)): 0* %; Test F disease control rating (Septoria nodorum; 40 ppm (marked *)): 0* %; Test G disease control rating (Septoria tritici; 40 ppm (marked *)): 97* %; Test C disease control rating (Botrytis cinerea; 40 ppm (marked *)): 99* %; Test H disease control rating ([3]; 40 ppm (marked *)): 0* %
Cc1nc(Cl)c(-c2c(F)cccc2F)n1-c1ccc2c(c1)OCCO2 [compound 470] |  |  |  |  |  |  |  |  |  |  |  |  |  |  | Test D disease control rating (Alternaria solani; 40 ppm (marked *)): 99* %; Test I disease control rating ([1]; 40 ppm (marked *)): 99* %; Test J disease control rating ([2]; 40 ppm (marked *)): 87* %; Test F disease control rating (Septoria nodorum; 40 ppm (marked *)): 0* %; Test G disease control rating (Septoria tritici; 40 ppm (marked *)): 92* %; Test C disease control rating (Botrytis cinerea; 40 ppm (marked *)): 99* %; Test H disease control rating ([3]; 40 ppm (marked *)): 0* %
COc1ccc(F)c(-c2c(Cl)nc(Br)n2-c2cccc(OC(F)F)c2)c1F [compound 402] | 100 | 94 | 99 | 99 | 96 | 100 | 0 |  |  |  |  |  |  |  | 
Fc1cccc(-n2c(Br)nc(Cl)c2-c2c(F)cc(F)cc2F)c1 [compound 367] | 100 | 98 | 97 | 89 | 90 | 99 | 9 |  |  |  |  |  |  |  | 
COc1cc(F)c(-n2cnc(C)c2-c2ccc(C)cc2)c(F)c1 [compound 560] |  |  |  |  |  |  |  |  |  |  |  |  |  |  | Test D disease control rating (Alternaria solani; 40 ppm (marked *)): 0* %; Test I disease control rating ([1]; 40 ppm (marked *)): 79* %; Test J disease control rating ([2]; 40 ppm (marked *)): 93* %; Test F disease control rating (Septoria nodorum; 40 ppm (marked *)): 0* %; Test G disease control rating (Septoria tritici; 40 ppm (marked *)): 65* %; Test C disease control rating (Botrytis cinerea; 40 ppm (marked *)): 99* %; Test H disease control rating ([3]; 40 ppm (marked *)): 33* %
COc1cc(F)c(-c2c(Cl)ncn2Cc2ccc(C)cc2)c(F)c1 [compound 274] |  |  |  |  |  |  |  | 100 | 99 | 77 | 51 | 94 | 100 | 48 | 
Fc1cc(F)c(-c2c(Cl)nc(Cl)n2-c2ccc(OC(F)(F)F)cc2)c(F)c1 [compound 600] | 100 | 0 | 99 | 0 | 94 | 86 | 7 |  |  |  |  |  |  |  | 
Cc1nc(Cl)n(-c2ccc(Cl)nc2)c1-c1c(F)ccc(C#N)c1F [compound 716] | 100 | 99 | 99 | 95 | 100 | 100 | 100 |  |  |  |  |  |  |  | 
COc1cc(F)c(-c2c(Cl)nc(C)n2Cc2ccc(Cl)cc2)c(F)c1 [compound 287] |  |  |  |  |  |  |  | 100 | 100 | 99 | 99 | 95 | 100 | 17 | 
COc1cc(F)c(-c2c(Cl)nc(Cl)n2-c2ccc(Cl)nc2OC)c(F)c1 [compound 514] | 99 | 93 | 99 | 73 | 100 | 99 | 0 |  |  |  |  |  |  |  | 
CN(C)c1ncn(Cc2cccc(Cl)c2)c1-c1ccc(Cl)cc1 [compound 273] |  |  |  |  |  |  |  | 0 | 41 | 0 | 0 | 13 | 63 | 46 | 
COc1cc(F)c(-c2c(Cl)ncn2-c2ccc(F)c(F)c2)c(F)c1 [compound 498] | 100 | 100 | 100 | 95 | 95 | 99 | 0 |  |  |  |  |  |  |  | 
